In US7186702B2, “Method of treating leishmaniasis using methyl-beta-cyclodextrin” (priority 2002, dated 2007):

Experiments:
[1] = system: Leishmania donovani strain AG83; assay: Ligand binding assay of [3H]thymidine labeled promastigotes to macrophages; type: cell-based; settings: 10 mM, J774A.1 macrophages, parasite:macrophage 10:1, assayed till 90 min
Description: (§1) Cells and cell culture. A murine macrophage cell line J774A.1 (American Type Culture Collection, Rockville, Md.) was used. The cells were maintained at 37° C. in RPMI-1640 medium containing 10% heat inactivated fetal calf serum (FCS)(Biological Industries, Israel) in a CO2 incubator (5% CO2) as described previously^10. The macrophages were seeded onto tissue culture plates (60 mm) at a density of 1×10^5 cells/plate and grown for 48 hrs before use.
(§2) Parasite culture. Leishmania donovani strain AG83 (MHOM/IN/1983/AG83) promastigotes were maintained at 24° C. in modified M-199 medium (Gibco/BRL) supplemented with 100 units/ml penicillin (Sigma, U.S.A.), 100 µg/ml streptomycin (Sigma, U.S.A.), and 10% heat inactivated FCS.
(§3) Cholesterol depletion and estimation. […]
(§4) Infecting macrophages with Leishmania. […] The monolayers were gently scraped to resuspend the macrophage-parasite complexes and the resulting cell suspension was analyzed either for radiolabel incorporation or macrophage-associated fluorescence. The percentage of infected macrophages was >95% after 3 hr with 5–8 amastigotes per macrophage as determined by Giemsa staining.
(§5) Labeling L. donovani AG83 promastigotes with tritium or FITC for binding studies. […] The fluorescence from the FITC-labeled parasites associated with the macrophages was analyzed with a Beckman Coulter ELITE ESP flow cytometer (Miami, Fla.) using EXPO 32 software.

[2] = system: Leishmania donovani strain AG83; assay: Intracellular amastigote count in infected macrophages by Giemsa staining; type: cell-based; settings: J774A.1 macrophages
Description: as §1, §2
(§6) Cholesterol depletion and estimation. J774A.1 cells grown on culture dishes were depleted of cholesterol by incubating for 30 min with 5 or 10 mM methyl-β-cyclodextrin (Sigma) at 37° C. in serum free medium^13,23. Total cellular cholesterol was estimated using Amplex Red cholesterol assay kit^27 (Molecular Probes). Cholesterol values were normalized to protein levels estimated using BCA assay reagent kit^28 (Pierce).
Infecting macrophages with Leishmania. Promastigotes were added onto the macrophage monolayers (both control and cholesterol-depleted) at a parasite: macrophage ratio of 10:1. The parasite-macrophage interaction was allowed to progress for 15, 30 and 90 min at 37° C. At the end of incubation, monolayers were washed with phosphate buffered saline (PBS) to remove free parasites and placed on ice to loosen adherent cells from the plates. The monolayers were gently scraped to resuspend the macrophage-parasite complexes and the resulting cell suspension was analyzed either for radiolabel incorporation or macrophage-associated fluorescence. The percentage of infected macrophages was >95% after 3 hr with 5–8 amastigotes per macrophage as determined by Giemsa staining.

J774A.1 macrophages = assay: Cholesterol depletion and estimation (Amplex Red cholesterol assay kit); type: cell-based, murine
Description: as §1, §6

[3] = system: Leishmania donovani strain AG83; assay: Flow cytometric analysis of binding of FITC-labeled promastigotes to macrophages; type: cell-based; settings: 10 mM, J774A.1 macrophages, parasite:macrophage 10:1, especially after 90 min
Description: as §1, §2, §3, §4, §5

methyl-β-cyclodextrin
reduction in macrophage-parasite interaction (attachment) compared to control cells [1]: ~45% | number of amastigotes present compared to control cells ([2]; 5 mM, multiplicity of infection 10:1, 3 hr): concomitant reduction in the number of amastigotes | amastigotes present compared to control cells ([2]; 10 mM): 50% | reduction in the number of intracellular amastigotes ([2]; 10 mM, multiplicity of infection 10:1, 3 hr): ~50% | reduction of cellular cholesterol (J774A.1 macrophages; 10 mM, 30 min incubation, total cellular cholesterol): ~40% | total cellular cholesterol upon treatment (FIG. 1) (J774A.1 macrophages; 5 or 10 mM): concentration-dependent reduction | fluorescence associated with cholesterol-depleted macrophages compared to control (FIG. 3) [3]: pronounced reduction in fluorescence
